{"source": "paper PMC5512454", "about": "(Bioorganic & medicinal chemistry, 2017)", "key": {"human D3 receptor": {"target": "human D3 receptor (Homo sapiens, UniProt P35462)", "sequence (P35462 whole entry)": "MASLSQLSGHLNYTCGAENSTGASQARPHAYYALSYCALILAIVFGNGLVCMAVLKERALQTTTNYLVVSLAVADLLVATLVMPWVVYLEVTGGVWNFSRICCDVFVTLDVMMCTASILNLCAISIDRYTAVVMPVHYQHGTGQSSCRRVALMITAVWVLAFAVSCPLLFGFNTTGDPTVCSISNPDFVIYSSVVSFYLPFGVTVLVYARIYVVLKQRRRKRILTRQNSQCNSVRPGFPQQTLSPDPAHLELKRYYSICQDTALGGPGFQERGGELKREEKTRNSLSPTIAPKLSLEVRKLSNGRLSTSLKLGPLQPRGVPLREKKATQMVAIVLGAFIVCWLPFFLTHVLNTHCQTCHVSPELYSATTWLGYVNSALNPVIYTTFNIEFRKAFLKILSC", "assay": "Radioligand displacement assay, hD3"}, "[1]": {"test_system": "cocaine-maintained responding", "assay": "Cocaine self-administration in rhesus monkeys", "format": "in vivo"}, "[2]": {"test_system": "food-maintained responding", "assay": "Food-maintained behavior in rhesus monkeys", "format": "in vivo"}, "[3]": {"test_system": "D3 receptors in rat brain", "assay": "Ex-vivo autoradiography of coronal rat brain sections", "format": "in vivo", "details": "co-injection of BP897; region of interest-to-background ratios; 60 min p.i."}, "[4]": {"target": "D3 receptors in rat brain slices (Rattus norvegicus, UniProt P19020)", "sequence (P19020 whole entry)": "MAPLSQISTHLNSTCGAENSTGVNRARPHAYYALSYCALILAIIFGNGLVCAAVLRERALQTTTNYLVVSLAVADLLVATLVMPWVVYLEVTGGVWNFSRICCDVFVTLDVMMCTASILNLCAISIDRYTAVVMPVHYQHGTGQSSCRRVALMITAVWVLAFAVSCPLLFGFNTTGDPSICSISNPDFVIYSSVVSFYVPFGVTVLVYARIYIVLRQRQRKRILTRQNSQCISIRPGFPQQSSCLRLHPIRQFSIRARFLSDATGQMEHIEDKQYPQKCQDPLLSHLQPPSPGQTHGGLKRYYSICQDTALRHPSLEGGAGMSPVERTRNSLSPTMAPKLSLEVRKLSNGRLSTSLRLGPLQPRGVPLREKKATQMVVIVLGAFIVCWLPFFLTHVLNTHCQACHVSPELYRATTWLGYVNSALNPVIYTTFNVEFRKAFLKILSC", "assay": "In-vitro autoradiography of coronal rat brain slices", "format": "binding", "details": "proven by displacement with BP897 (1 μM)"}, "[5]": {"test_system": "dopamine D3 receptors in vivo", "assay": "PET imaging study in rat"}}, "data": [{"smiles": "CC(C)(C)c1nc(N2CCN(CCCCNC(=O)c3cc4ccccc4s3)CC2)cc(C(F)(F)F)n1", "note": "[Compound 9, N-(4-(4-(2-tert-butyl-6-(trifluoromethyl)pyrimidin-4-yl)piperazin-1-yl)butyl)benzo[b]thiophene-2-carboxamide]", "values": [{"measurement": "D3 selectivity over all biogenic amine receptors investigated", "setting": "human D3 receptor", "value": "1000–20000 fold"}]}, {"smiles": "COc1ccccc1N1CCN(CCCCNC(=O)c2cc3ccccn3n2)CC1", "note": "[Compound 1]", "values": [{"measurement": "Cocaine-maintained responding, % of control values", "setting": "[1]; pretreatment 0.32 mg/kg, 0.03 mg/kg per injection i.v. cocaine, group average", "value": "approximately 20%"}, {"measurement": "Effect of various pretreatment doses on cocaine-maintained responding", "setting": "[1]; various doses (Figure S2)", "value": "dose-related decreases"}, {"measurement": "Food-maintained responding following the i.v. self-administration component (food 2)", "setting": "[2]; food 2", "value": "did not appreciably alter"}, {"measurement": "Reduction of food-maintained behavior during food 1 session", "setting": "[2]; pretreatment 0.32 mg/kg, food 1 (before cocaine component)", "value": "approximately 30%"}, {"measurement": "Food 1 and 2 responding at low and intermediate doses", "setting": "[2]; pretreatment 0.1 and 0.18 mg/kg", "value": "did not markedly decrease"}, {"measurement": "Duration of action of behaviorally active doses", "setting": "[2]; suggested from food 2 components in sessions of i.v. saline availability", "value": "< 2", "unit": "h"}]}, {"smiles": "O=C(NCCCCN1CCN(c2ccccc2OCC[18F])CC1)c1cc2ccccn2n1", "note": "[[^18F]2, N-[4-[4-(2-[^18F]fluoroethoxyphenyl)-piperazin-1-yl]-butyl]-pyrazolo-[1,5-a]pyridin-2-carboxamide]", "values": [{"measurement": "Radioligand displaced by BP897, third ventricle (3V)", "setting": "[3]", "value": "5–14%"}, {"measurement": "Binding in rat brain slices, in-vitro autoradiography", "setting": "[4]", "value": "D3-specific binding"}, {"measurement": "Blood-brain-barrier (BBB) penetration", "setting": "[5]", "value": "only low blood-brain-barrier (BBB) penetration"}, {"measurement": "Brain uptake of the radioligand in CNS structures", "setting": "[5]", "value": "marginal brain uptake"}, {"measurement": "Reduction of uptake in the pituitary gland by pretreatment with BP897", "setting": "[5]", "value": 25, "unit": "%"}, {"measurement": "Mean whole pituitary gland uptake of the radioligand", "setting": "[5]; 40 min p.i.", "value": "0.394 ± 0.016", "unit": "% ID/g"}]}]}
